We go through 16 compounds from ChEMBL document CHEMBL1201862, “PubChem BioAssay data set” (2004).

Among the test systems are MDA-MB-231; MDA-MB-435; BT-549; MDA-N; SR; LXFL 529; KM-20L2; HOP-18; RXF 631.
Common to all, as to test: inhibition of tumour cell growth, NCI panel, 48 h

Values joined by “and” are separate entries in the source; they are usually repeats but may differ in a detail not shown here. Identical values can stand only once.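 Growth conditions: 96-well plates. Treatment: test compound, 48 hours, 5 concentrations. Analysis: linear interpolation between bracketing concentrations; unreached endpoints set to highest concentration. Abbreviation: GI50, concentration required for 50% inhibition of growth.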 Active and inactive are the calls of the source. No stated cut-off is given here; in the data, active = GI50 up to about 1.1 µM and inactive = higher.

In the case of `NNc1nc2ccccc2s1`, the GI50 with MDA-MB-231 was > 100 µM (inactive); with MDA-MB-435, > 100 µM (inactive); in the test on BT-549 it was > 100 µM (inactive); with MDA-N, > 100 µM (inactive); in the test with SR it was 53.2 µM (inactive).

Turning to `CN1CC2(CCCCC2)C(O)C12C=CCCC2` (configuration not stated), the GI50 in the test on LXFL 529 and in the test with KM-20L2 was > 100 µM (inactive) in each case.

Regarding `C1=Cc2nccc3cc4c(c(c23)N1)OCO4`, the GI50 was 10.3 µM (inactive) in the test with MDA-MB-231; 12.7 µM (inactive) with MDA-MB-435; 20.3 µM (inactive) in the test with BT-549; 8.02 µM (inactive) with MDA-N; 1.28 µM (inactive) in the test with SR.

As to `COc1ccc(/C(Cl)=C(\C=O)c2ccc(Cl)c(Cl)c2)cc1OC`, the GI50 in the test on LXFL 529 is 3.55 µM (inactive); in the test on HOP-18, 6.76 µM (inactive); in the test with RXF 631, 4.57 µM (inactive); in the test on KM-20L2, 6 µM (inactive).

`C1CCC(OC2CSC2)OC1` (configuration not stated): the GI50 with MDA-MB-231, with MDA-MB-435, with MDA-N and in the test on SR was > 100 µM (inactive) each time.

Turning to `CC1CC(Br)C(=O)O1` (configuration not stated), the GI50 with MDA-MB-231, in the test with MDA-MB-435, in the test on BT-549 and with MDA-N was > 100 µM (inactive) throughout.

Consider `CC1=C(C)Cc2c(O)ccc(O)c2C1`, for which the GI50 was 18 µM (inactive) in the test with MDA-MB-231, 16.8 µM (inactive) in the test with MDA-MB-435, 17 µM (inactive) in the test with MDA-N and 12.6 µM (inactive) in the test with SR.

Consider `CN1c2ccccc2NC(CC(=O)O)C2CC=CN21` (configuration not stated), for which the GI50 was > 100 µM (inactive) in the test on LXFL 529, 0.117 µM (active) in the test with HOP-18, > 100 µM (inactive) in the test with RXF 631 and > 100 µM (inactive) in the test with KM-20L2.

In the case of `Cc1cc(-c2ccccc2)nc(Nc2cc3ccccc3[nH]2)n1`, the GI50 in the test on LXFL 529, in the test on KM-20L2 and in the test with SR was > 100 µM (inactive) throughout.

`CCc1cc(=O)n(/C(C)=C/c2ccccc2)n1C`: the GI50 with MDA-MB-231, in the test on MDA-MB-435, in the test with BT-549 and with MDA-N was > 100 µM (inactive) each time.

For `COc1cc(C(C)O)c[n+](Cc2ccccc2)c1` (configuration not stated), the GI50 in the test on LXFL 529, with HOP-18, in the test on RXF 631, in the test with KM-20L2 and in the test with SR was > 100 µM (inactive) each time.

Consider `CCOC(=O)C(C)N1C(=O)c2ccccc2S1(=O)=O` (configuration not stated), for which, in the test on HOP-18, the GI50 is > 100 µM (inactive).

Take `Cc1c2cnccc2c(C)c2c1c1ccccc1n2CCCCCCCl`: the GI50 is > 7.93 µM (inactive) in the test on HOP-18 and 25.1 µM (inactive) with KM-20L2.

As to `COC(=O)[C@]12CC[C@H]3CN(C(=O)OCc4ccccc4)[C@H]([C@H]31)[C@H](C(=O)OCC[Si](C)(C)C)N2S(=O)(=O)c1ccc(C)cc1`, the GI50 with MDA-MB-231 is 8.13 µM (inactive); in the test with MDA-MB-435 it was > 100 µM (inactive); with BT-549 it was > 100 µM (inactive); in the test with MDA-N, 74 µM (inactive); in the test with SR, 39.2 µM (inactive).

For `COc1cc2c3cc1Oc1c(OC)c(OC)cc4c1C(Cc1ccc(cc1)Oc1cc(ccc1O)CC3N(C)CC2)N(C)CC4` (configuration not stated), the GI50 was 10.1 µM (inactive) in the test on MDA-MB-231; 13.6 µM (inactive) in the test with LXFL 529; > 100 µM (inactive) in the test with HOP-18; 8.09 µM (inactive) in the test with MDA-MB-435; 10.4 µM (inactive) in the test with KM-20L2; 10.1 µM (inactive) in the test on BT-549. Besides, the GI50 with MDA-N is 4.73 µM (inactive); with SR, 2.78 µM (inactive) and 2.06 µM (inactive).

As for `CCCCCCCC/C=C\CCCCCCCCCCCC(=O)O` [ERUCIC ACID], the GI50 in the test with HOP-18 was 46.2 µM (inactive); with KM-20L2, 38.3 µM (inactive).
